# According to publication PMC9813109, “Phase I dose-escalation study of milademetan in patients with relapsed or refractory acute myeloid leukemia” (International Journal of Hematology, 2022):
# Legend:
# [1] = system: R/R AML (blast count in bone marrow aspirate); assay: Efficacy assessment: best response and bone marrow blast count; format: in vivo, human; conditions: for Best response: Not applicable: SD < 3 months was deemed not applicable
# From the text: Bone marrow and peripheral blood results were used to assess the antitumor effect of milademetan. AML response criteria were defined as shown in Supplementary Table 1. A morphologic leukemia-free state (MLFS) was defined as bone marrow blasts < 5% in the absence of blasts with Auer rods and the absence of extramedullary leukemia. The presence/absence of hematological recovery or blood transfusion was not considered. Stable disease (SD) was defined as an absence of CR, CR with incomplete hematologic recovery (CRi) or partial hematologic recovery (CRh), partial remission (PR), or MLFS, provided that the criteria for the progressive disease were not met. SD had to last at least 3 months (assessed as SD more than thrice in a row) after initiating milademetan treatment. SD < 3 months was deemed not applicable. The best-measured response was defined as the best overall response (all time points after the start of study treatment until the end of treatment). The composite CR (CRc) duration was defined as the time between when the criteria for […] first met and when a relapse was first confirmed. In addition to descriptive statistics, the geometric mean and geometric coefficient of variation were used to describe the PK parameters. All analyses were conducted using SAS® software (version 9.4; SAS Institute Inc., Cary, NC, USA). The time courses of mean plasma milademetan concentrations on days 1 and 14 of cycle 1 (linear scale) in the QD 14/28-day schedule were used for pharmacokinetic analysis. The best response was measured as CR, CRh, CRi, or PR. For efficacy analysis, a waterfall plot of the best percent change from baseline blast count in bone marrow aspirate on the QD 14/28-day schedule was drawn to assess the blast count reduction. In addition, line plots of individual serum MIC-1 levels were drawn in the QD 14/28-day schedule for the pharmacodynamics analysis set.
# MDM2–p53 interaction = system: MDM2–p53 interaction; set-up: method as in PMID 31310659, PMID 30724592; conditions: in vitro studies; cited from earlier work
smiles,measurement,setting,value
CC1(C)CCC2(CC1)N[C@@H](C(=O)N[C@@H]1CC[C@@H](C(N)=O)OC1)[C@H](c1ccnc(Cl)c1F)[C@]21C(=O)Nc2cc(Cl)ccc21 [milademetan],Best response: Morphologic leukemia-free state,[1]; 90 mg/day (n = 4),"0 (0.0) n, %"
same,Best response: Progressive disease,[1]; 90 mg/day (n = 4),"1 (25.0) n, %"
same,Best response: Stable disease,[1]; 90 mg/day (n = 4),"1 (25.0) n, %"
same,Best response: Not applicable,[1]; 90 mg/day (n = 4),"2 (50.0) n, %"
same,Best response: Morphologic leukemia-free state,[1]; 120 mg/day (n = 5),"1 (20.0) n, %"
same,Best response: Progressive disease,[1]; 120 mg/day (n = 5),"1 (20.0) n, %"
same,Best response: Stable disease,[1]; 120 mg/day (n = 5),"0 (0.0) n, %"
same,Best response: Not applicable,[1]; 120 mg/day (n = 5),"3 (60.0) n, %"
same,Best response: Morphologic leukemia-free state,[1]; 160 mg/day (n = 3),"1 (33.3) n, %"
same,Best response: Progressive disease,[1]; 160 mg/day (n = 3),"0 (0.0) n, %"
same,Best response: Stable disease,[1]; 160 mg/day (n = 3),"0 (0.0) n, %"
same,Best response: Not applicable,[1]; 160 mg/day (n = 3),"2 (66.7) n, %"
same,Patients with a ≥ 50% reduction in baseline blast count in the bone marrow aspirate,[1]; 12 patients,33.3%
same,"CR, CRh, CRi, or PR","[1]; 12 patients, 90, 120 or 160 mg",None of the patients
same,"MLFS, patients","[1]; 12 patients, TP53 wild at baseline",16.7%
same,Best response: Morphologic leukemia-free state,[1]; Total (n = 12),"2 (16.7) n, %"
same,Best response: Progressive disease,[1]; Total (n = 12),"2 (16.7) n, %"
same,Best response: Stable disease,[1]; Total (n = 12),"1 (8.3) n, %"
same,Best response: Not applicable,[1]; Total (n = 12),"7 (58.3) n, %"
same,Effect on MDM2–p53 interaction,MDM2–p53 interaction,inhibits the MDM2–p53 interaction
